Results as given in the supplement of paper PMC8617591.

Columns and labels:
[1] = system: Mycobacterium tuberculosis Erdman (autoluminescent); assay: total FIC50 (Loewe) at 50% inhibition, three-drug combination (log2); higher = more antagonistic
Description: (§1)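 DiaMOND equipotent three-drug combination dose responses (10 doses, 1.5- or 2-fold spacing, centred on IC90) against autoluminescent M. tuberculosis Erdman in 8 in vitro models. Read-out is OD600, or luminescence for the intracellular and dormancy models, normalised to untreated wells. Hill-fit Einf, AUC25 and GRinf are potency metrics; FIC50 and FIC90 are total Loewe fractional inhibitory concentrations as log2 (negative = synergy).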

[2] = system: Mycobacterium tuberculosis Erdman (autoluminescent); assay: total FIC90 (Loewe) at 90% inhibition, three-drug combination (log2); higher = more antagonistic
Description: as §1

[3] = system: Mycobacterium tuberculosis Erdman (autoluminescent); assay: AUC25, normalised area under dose response up to IC25 (three-drug combination) (fraction (0-1)); higher = more potent at low dose
Description: as §1

[4] = system: Mycobacterium tuberculosis Erdman (autoluminescent); assay: GRinf, maximum normalised growth rate inhibition (three-drug combination) (unitless (-1 to 1)); higher = less effect (negative = killing)
Description: as §1

[5] = system: Mycobacterium tuberculosis Erdman (autoluminescent); assay: Einf, fitted maximum growth inhibition of three-drug combination (fraction); higher = stronger maximal inhibition
Description: as §1

CC[C@@H](CO)NCCN[C@@H](CC)CO [ethambutol] + NNC(=O)c1ccncc1 [isoniazid] + NC(=O)c1cnccn1 [pyrazinamide]
Details | AUC25, [3] | Einf, [5] | GRinf, [4] | total FIC50, [1] | total FIC90, [2]
in vitro model: acidic pH 5.7, time point: constant (~7 days, model-specific) | 0.0856 | 0.755 | -0.322 | 0.219 | –
in vitro model: acidic pH 5.7, time point: terminal (~4-5 doublings, model-specific) | 0.076 | 0.953 | -0.269 | 0.788 | -0.0381
in vitro model: intracellular J774, time point: constant = terminal | – | 0.988 | -0.458 | – | 0.0195

Details | AUC25, [3] | Einf, [5] | GRinf, [4] | total FIC50, [1] | total FIC90, [2]
in vitro model: butyrate, time point: constant (~7 days, model-specific) | 0.0862 | 0.936 | -0.0472 | 0.362 | –
in vitro model: butyrate, time point: terminal (~4-5 doublings, model-specific) | 0.0571 | 0.956 | 0.000899 | 0.43 | 0.0924
in vitro model: cholesterol 0.05 mM, time point: constant (~7 days, model-specific) | 0.115 | 0.804 | -0.282 | – | –
in vitro model: cholesterol 0.05 mM, time point: terminal (~4-5 doublings, model-specific) | 0.119 | 0.953 | -0.377 | 0.635 | –
in vitro model: cholesterol-high 0.2 mM, time point: constant (~7 days, model-specific) | 0.0628 | 0.921 | -0.27 | 0.837 | –
in vitro model: cholesterol-high 0.2 mM, time point: terminal (~4-5 doublings, model-specific) | 0.0569 | 1 | -0.8 | 0.879 | 0.821
in vitro model: dormancy (butyrate + nitrate, low O2), time point: constant (~7 days, model-specific) | 0.0979 | 0.822 | 0.394 | -0.294 | –
in vitro model: dormancy (butyrate + nitrate, low O2), time point: terminal (~4-5 doublings, model-specific) | 0.104 | 0.972 | -0.0582 | 0.22 | 1.09
in vitro model: standard 7H9 glycerol, time point: constant = terminal | 0.063 | 0.862 | 0.233 | 0.587 | –
in vitro model: valerate, time point: constant (~7 days, model-specific) | 0.069 | 0.819 | 0.124 | 0.411 | –
in vitro model: valerate, time point: terminal (~4-5 doublings, model-specific) | 0.0469 | 0.898 | 0.113 | 0.582 | 0.569

CC[C@@H](CO)NCCN[C@@H](CC)CO [ethambutol] + NNC(=O)c1ccncc1 [isoniazid] + O=[N+]([O-])c1cn2c(n1)OC[C@@H](OCc1ccc(OC(F)(F)F)cc1)C2 [pretomanid]
Details | AUC25, [3] | Einf, [5] | GRinf, [4] | total FIC50, [1] | total FIC90, [2]
in vitro model: acidic pH 5.7, time point: constant (~7 days, model-specific) | 0.121 | 0.841 | -0.764 | 0.401 | –
in vitro model: acidic pH 5.7, time point: terminal (~4-5 doublings, model-specific) | 0.0806 | 0.968 | -0.36 | 0.77 | 0.544
in vitro model: intracellular J774, time point: constant = terminal | – | 0.996 | -0.562 | – | -0.84

Details | AUC25, [3] | Einf, [5] | GRinf, [4] | total FIC50, [1] | total FIC90, [2]
in vitro model: butyrate, time point: constant (~7 days, model-specific) | 0.0954 | 0.941 | -0.0462 | 0.443 | –
in vitro model: butyrate, time point: terminal (~4-5 doublings, model-specific) | 0.0496 | 0.966 | -0.0497 | 0.439 | 0.012
in vitro model: cholesterol 0.05 mM, time point: constant (~7 days, model-specific) | 0.11 | 0.715 | -0.203 | 0.668 | –
in vitro model: cholesterol 0.05 mM, time point: terminal (~4-5 doublings, model-specific) | 0.0657 | 0.858 | 0.0963 | 0.823 | –
in vitro model: cholesterol-high 0.2 mM, time point: constant (~7 days, model-specific) | 0.0675 | 0.881 | -0.113 | 1.17 | –
in vitro model: cholesterol-high 0.2 mM, time point: terminal (~4-5 doublings, model-specific) | 0.0388 | 0.996 | -0.623 | 1.18 | 1.18
in vitro model: dormancy (butyrate + nitrate, low O2), time point: constant (~7 days, model-specific) | 0.162 | 0.915 | 0.106 | 0.0212 | –
in vitro model: dormancy (butyrate + nitrate, low O2), time point: terminal (~4-5 doublings, model-specific) | 0.105 | 0.982 | -0.213 | 0.237 | 0.398
in vitro model: standard 7H9 glycerol, time point: constant = terminal | 0.0742 | 0.924 | 0.0732 | 0.498 | –
in vitro model: valerate, time point: constant (~7 days, model-specific) | 0.109 | 0.867 | 0.0667 | 0.146 | –
in vitro model: valerate, time point: terminal (~4-5 doublings, model-specific) | 0.0768 | 0.92 | 0.0915 | 0.406 | –

CC[C@@H](CO)NCCN[C@@H](CC)CO [ethambutol] + O=[N+]([O-])c1cn2c(n1)OC[C@@H](OCc1ccc(OC(F)(F)F)cc1)C2 [pretomanid] + CO[C@H]1/C=C/O[C@@]2(C)Oc3c(C)c(O)c4c(O)c(c(/C=N/N5CCN(C6CCCC6)CC5)c(O)c4c3C2=O)NC(=O)/C(C)=C\C=C\[C@H](C)[C@H](O)[C@@H](C)[C@@H](O)[C@@H](C)[C@H](OC(C)=O)[C@@H]1C [rifapentine]
Details | AUC25, [3] | Einf, [5] | GRinf, [4] | total FIC50, [1] | total FIC90, [2]
in vitro model: acidic pH 5.7, time point: constant (~7 days, model-specific) | 0.109 | 0.881 | -0.167 | -0.27 | –
in vitro model: acidic pH 5.7, time point: terminal (~4-5 doublings, model-specific) | 0.0593 | 0.965 | -0.136 | -0.17 | -0.213
in vitro model: intracellular J774, time point: constant = terminal | – | 0.983 | -0.509 | – | -1.96

Details | AUC25, [3] | Einf, [5] | GRinf, [4] | total FIC50, [1] | total FIC90, [2]
in vitro model: butyrate, time point: constant (~7 days, model-specific) | 0.0719 | 0.917 | 0.00142 | 0.274 | –
in vitro model: butyrate, time point: terminal (~4-5 doublings, model-specific) | 0.0544 | 0.96 | 0.0016 | 0.212 | -0.372
in vitro model: cholesterol 0.05 mM, time point: constant (~7 days, model-specific) | 0.103 | 0.743 | -0.355 | 0.946 | –
in vitro model: cholesterol 0.05 mM, time point: terminal (~4-5 doublings, model-specific) | 0.0797 | 0.923 | -0.204 | 1.14 | –
in vitro model: cholesterol-high 0.2 mM, time point: constant (~7 days, model-specific) | 0.0331 | 0.825 | -0.056 | 1.15 | –
in vitro model: cholesterol-high 0.2 mM, time point: terminal (~4-5 doublings, model-specific) | 0.0353 | 1 | -0.701 | 1.34 | 1.42
in vitro model: dormancy (butyrate + nitrate, low O2), time point: constant (~7 days, model-specific) | 0.115 | 0.832 | 0.245 | 0.472 | –
in vitro model: dormancy (butyrate + nitrate, low O2), time point: terminal (~4-5 doublings, model-specific) | 0.0993 | 0.964 | -0.137 | 0.154 | 0.383
in vitro model: standard 7H9 glycerol, time point: constant = terminal | 0.0595 | 0.912 | 0.0905 | 0.054 | –
in vitro model: valerate, time point: constant (~7 days, model-specific) | 0.0932 | 0.882 | -0.0094 | 0.185 | –
in vitro model: valerate, time point: terminal (~4-5 doublings, model-specific) | 0.0526 | 0.938 | 0.0245 | 0.593 | 0.229
